# Laboratory results from patent US20160002247A1, “8-SUBSTITUTED IMIDAZOPYRIMIDINONE DERIVATIVE HAVING AUTOTAXIN INHIBITORY ACTIVITY” (THE UNIVERSITY OF TOKYO, priority 2013, published 2016).
# Target: T1, Human autotaxin enzyme (Homo sapiens, UniProt Q13822)
# T1 construct: purchased R&D System
# Assay: Evaluation of autotaxin inhibitor, Method C (Test Example 3): 18:0 Lyso PC, choline assay, Resorufin fluorescence
# Assay type: biochemical
# Details: Assay Method C (Test Example 3), human autotaxin, 18:0 Lyso PC substrate; read-out: Inhibitory Activity (autotaxin enzyme inhibitory activity, IC50 class)
# Summary of the method: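 Choline-coupled fluorescence readout (20 min, resorufin at 531/598 nm) followed a 2 h room-temperature reaction of human autotaxin with 18:0 Lyso PC substrate (added as 200 μM solution) in pH 7.5 Tris buffer containing MgCl2 and Triton X-100. Percent inhibition scaled to no-compound (0%) and no-enzyme (100%) wells and plotted versus concentration.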
row,SMILES,IC50 [nM]
1,CCCCCn1c(N2CCC[C@H]2C(=O)NCC2CCN(C)C2)cc(=O)n2cc(-c3ccc(Cl)cc3)nc12 (stereo partly drawn) [Compound 650],> 1000
2,CCCCCn1c(N2CCC[C@H]2C(=O)NCCCCCCN(C)C)cc(=O)n2cc(-c3ccc(Cl)cc3)nc12 [Compound 651],10 to 100
3,CCCCCn1c(N2CCC[C@H]2C(=O)NCCCCN2CCN(C)CC2)cc(=O)n2cc(-c3ccc(Cl)cc3)nc12 [Compound 652],10 to 100
4,CCCCCn1c(N2CCC[C@H]2C(=O)NCCCCCN(C)C)cc(=O)n2cc(-c3ccc(Cl)cc3)nc12 [Compound 653],100 to 1000
5,CCCCCn1c(N2CCC[C@H]2C(=O)NCCCCCN2CCOCC2)cc(=O)n2cc(-c3ccc(Cl)cc3)nc12 [Compound 654],< 10
6,CCCCCn1c(N2CCC[C@H]2C(=O)NCCCN(C)C(=O)OC(C)(C)C)cc(=O)n2cc(-c3ccc(Cl)cc3)nc12 [Compound 655],100 to 1000
7,CCCCCn1c(N2CCC[C@H]2C(=O)NCCCCN(C)C)cc(=O)n2cc(-c3ccc(Cl)cc3)nc12 [Compound 656],100 to 1000
8,CCCCCn1c(N2CCC[C@H]2C(=O)NCCCCN2CC(C)OC(C)C2)cc(=O)n2cc(-c3ccc(Cl)cc3)nc12 (stereo partly drawn) [Compound 657],< 10
9,CCCCCn1c(N2CCNC(C(=O)O)C2)cc(=O)n2cc(-c3ccc(Cl)cc3)nc12 (stereo not drawn) [Compound 658],10 to 100
10,CCCCCn1c(N2CCNC[C@@H]2C(=O)O)cc(=O)n2cc(-c3ccc(Cl)cc3)nc12 [Compound 659],> 1000
11,CCCCCn1c(N2CCNC[C@H]2C(=O)O)cc(=O)n2cc(-c3ccc(Cl)cc3)nc12 [Compound 660],> 1000
12,CCCCCn1c(N2CCC[C@H]2C(=O)NCCCNC)cc(=O)n2cc(-c3ccc(Cl)cc3)nc12 [Compound 661],> 1000
13,CCCCCn1c(N2CCNC(C(=O)NCCC(=O)O)C2)cc(=O)n2cc(-c3ccc(Cl)cc3)nc12 (stereo not drawn) [Compound 662],10 to 100
14,CCCCCn1c(N2CCNC[C@@H]2C(=O)NCCC(=O)O)cc(=O)n2cc(-c3ccc(Cl)cc3)nc12 [Compound 663],100 to 1000
15,CCCCCn1c(N2CCNC[C@H]2C(=O)NCCC(=O)O)cc(=O)n2cc(-c3ccc(Cl)cc3)nc12 [Compound 664],10 to 100
16,CCCCCn1c(N2CCNC(C(=O)NCC(=O)O)C2)cc(=O)n2cc(-c3ccc(Cl)cc3)nc12 (stereo not drawn) [Compound 665],10 to 100
17,CCCCCn1c(N2CCNC[C@@H]2C(=O)NCC(=O)O)cc(=O)n2cc(-c3ccc(Cl)cc3)nc12 [Compound 666],10 to 100
18,CCCCCn1c(N2CCNC[C@H]2C(=O)NCC(=O)O)cc(=O)n2cc(-c3ccc(Cl)cc3)nc12 [Compound 667],10 to 100
19,CCCCCn1c(N2CCC[C@H]2C(=O)NCCOCCN2C(=O)C=CC2=O)cc(=O)n2cc(-c3ccc(Cl)cc3)nc12 [Compound 668],100 to 1000
20,CCCCCn1c(N2CC[C@@H](C(=O)O)C2)cc(=O)n2cc(-c3ccc(Cl)cc3)nc12 [Compound 669],10 to 100
21,CCCCCn1c(N2CC[C@H](C(=O)O)C2)cc(=O)n2cc(-c3ccc(Cl)cc3)nc12 [Compound 670],10 to 100
22,CCCCCn1c(N2CCC[C@H](C(=O)OCC)C2)cc(=O)n2cc(-c3ccc(Cl)cc3)nc12 [Compound 671],100 to 1000

row,SMILES,IC50 [nM]
1,CCCCCn1c(N2CCC[C@H]2C(=O)NC(CO)C(=O)O)cc(=O)n2cc(-c3ccc(Cl)cc3)nc12 (stereo partly drawn) [Compound 672],10 to 100
2,CCCCCn1c(N2CCC[C@H]2C(=O)N2CCC[C@@H](C(=O)O)C2)cc(=O)n2cc(-c3ccc(Cl)cc3)nc12 [Compound 673],< 10
3,CCCCCn1c(N2CCC[C@H]2C(=O)NC(C)(C)C(=O)O)cc(=O)n2cc(-c3ccc(Cl)cc3)nc12 [Compound 674],< 10
4,CCCCCn1c(N2CCC[C@H]2C(=O)N[C@@H](C)C(=O)O)cc(=O)n2cc(-c3ccc(Cl)cc3)nc12 [Compound 675],< 10
5,CCCCCn1c(N2CCC[C@H]2C(=O)NC(C)(C)C(C)C(=O)O)cc(=O)n2cc(-c3ccc(Cl)cc3)nc12 (stereo partly drawn) [Compound 676],< 10
6,CCCCCn1c(N2CCC[C@H]2C(=O)N2CCC[C@H](C(=O)O)C2)cc(=O)n2cc(-c3ccc(Cl)cc3)nc12 [Compound 677],< 10
7,CCCCCn1c(N2CCC[C@H]2C(=O)N[C@H](C)C(=O)O)cc(=O)n2cc(-c3ccc(Cl)cc3)nc12 [Compound 678],10 to 100
8,CCCCCn1c(N2CCC[C@H]2C(=O)NC2(C(=O)O)CC2)cc(=O)n2cc(-c3ccc(Cl)cc3)nc12 [Compound 679],< 10
9,CCCCCn1c(N2CCC[C@H]2C(=O)N2CCO[C@H](C(=O)O)C2)cc(=O)n2cc(-c3ccc(Cl)cc3)nc12 [Compound 680],10 to 100
10,CCCCCn1c(N2CCC[C@H]2C(=O)N2CCO[C@@H](C(=O)O)C2)cc(=O)n2cc(-c3ccc(Cl)cc3)nc12 [Compound 681],< 10
11,CCCCCn1c(N2CCN(C(=O)OC(C)(C)C)CC2)cc(=O)n2cc(-c3ccc(Cl)cc3)nc12 [Compound 682],100 to 1000
12,CCCCCn1c(N2CCC[C@H]2C(=O)N(C)CC(=O)OC)cc(=O)n2cc(-c3ccc(Cl)cc3)nc12 [Compound 683],10 to 100
13,CCCCCn1c(N2CCC[C@H]2C(=O)N(C)CC(=O)N(C)CC(=O)OC)cc(=O)n2cc(-c3ccc(Cl)cc3)nc12 [Compound 684],10 to 100
14,CCCCCn1c(N2CCC[C@H]2C(=O)NC(C)C(=O)OC)cc(=O)n2cc(-c3ccc(Cl)cc3)nc12 (stereo partly drawn) [Compound 685],< 10
15,CCCCCn1c(N2CCC[C@H]2C(=O)NC(CO)C(=O)OC)cc(=O)n2cc(-c3ccc(Cl)cc3)nc12 (stereo partly drawn) [Compound 686],10 to 100
16,CCCCCn1c(N2CCC[C@H]2C(=O)N[C@@H](CO)C(=O)OC)cc(=O)n2cc(-c3ccc(Cl)cc3)nc12 [Compound 687],100 to 1000
17,CCCCCn1c(N2CCC[C@H]2C(=O)N2CCC[C@@H](C(=O)OCC)C2)cc(=O)n2cc(-c3ccc(Cl)cc3)nc12 [Compound 688],10 to 100
18,CCCCCn1c(N2CCC[C@H]2C(=O)NC(C)(C)C(=O)OC)cc(=O)n2cc(-c3ccc(Cl)cc3)nc12 [Compound 689],< 10
19,CCCCCn1c(N2CCC[C@H]2C(=O)N[C@@H](C)C(=O)OC)cc(=O)n2cc(-c3ccc(Cl)cc3)nc12 [Compound 690],10 to 100
20,CCCCCn1c(N2CCC[C@H]2C(=O)N2CCC[C@H](C(=O)OCC)C2)cc(=O)n2cc(-c3ccc(Cl)cc3)nc12 [Compound 691],100 to 1000
21,CCCCCn1c(N2CCC[C@H]2C(=O)N[C@H](C)C(=O)OC)cc(=O)n2cc(-c3ccc(Cl)cc3)nc12 [Compound 692],10 to 100
22,CCCCCn1c(N2CCC[C@H]2C(=O)NC2(C(=O)OC)CC2)cc(=O)n2cc(-c3ccc(Cl)cc3)nc12 [Compound 693],10 to 100

row,SMILES,IC50 [nM]
1,CCCCCn1c(N2CCC[C@H]2C(=O)NC2CCCCNC2=O)cc(=O)n2cc(-c3ccc(Cl)cc3)nc12 (stereo partly drawn) [Compound 694],10 to 100
2,CCCCCn1c(N2CCC[C@H]2C(=O)N2CCCC(C(N)=O)C2)cc(=O)n2cc(-c3ccc(Cl)cc3)nc12 (stereo partly drawn) [Compound 695],100 to 1000
3,CCCCCn1c(N2CCC[C@H]2C(=O)N2CCCC(C(=O)OCC)C2)cc(=O)n2cc(-c3ccc(Cl)cc3)nc12 (stereo partly drawn) [Compound 696],100 to 1000
4,CCCCCn1c(N2CCC[C@H]2C(=O)N2CCNC(=O)C2)cc(=O)n2cc(-c3ccc(Cl)cc3)nc12 [Compound 697],10 to 100
5,CCCCCn1c(N2CCC[C@H]2C(=O)N2CCNC(=O)CC2)cc(=O)n2cc(-c3ccc(Cl)cc3)nc12 [Compound 698],10 to 100
6,CCCCCn1c(N2CCC[C@H]2C(=O)NCC(=O)N(C)C)cc(=O)n2cc(-c3ccc(Cl)cc3)nc12 [Compound 699],100 to 1000
7,CCCCCn1c(N2CCC[C@H]2C(=O)NC2CCNC2=O)cc(=O)n2cc(-c3ccc(Cl)cc3)nc12 (stereo partly drawn) [Compound 700],10 to 100
8,CCCCCn1c(N2CCC[C@H]2C(=O)N2CCC(C(N)=O)C2)cc(=O)n2cc(-c3ccc(Cl)cc3)nc12 (stereo partly drawn) [Compound 701],100 to 1000
9,CCCCCn1c(N2CCC[C@H]2C(=O)N[C@@H]2CCNC2=O)cc(=O)n2cc(-c3ccc(Cl)cc3)nc12 [Compound 702],10 to 100
10,CCCCCn1c(N2CCC[C@H]2C(=O)N(C)CC(=O)N(C)C)cc(=O)n2cc(-c3ccc(Cl)cc3)nc12 [Compound 703],10 to 100
11,CCCCCn1c(N2CCC[C@H]2C(=O)N(C)CC(N)=O)cc(=O)n2cc(-c3ccc(Cl)cc3)nc12 [Compound 704],10 to 100
12,CCCCCn1c(N2CCC[C@H]2C(=O)N[C@@H]2CNC(=O)C2)cc(=O)n2cc(-c3ccc(Cl)cc3)nc12 [Compound 705],100 to 1000
13,CCCCCn1c(N2CCC[C@H]2C(=O)NCC(=O)C(C)(C)C)cc(=O)n2cc(-c3ccc(Cl)cc3)nc12 [Compound 706],10 to 100
14,CCCCCn1c(N2CCC[C@H]2C(=O)N[C@H]2CCCCNC2=O)cc(=O)n2cc(-c3ccc(Cl)cc3)nc12 [Compound 707],100 to 1000
15,CCCCCn1c(N2CCC[C@H]2C(=O)N[C@H]2CCNC2=O)cc(=O)n2cc(-c3ccc(Cl)cc3)nc12 [Compound 708],10 to 100
16,CCCCCn1c(N2CCC[C@H]2C(=O)N[C@H](C)C(N)=O)cc(=O)n2cc(-c3ccc(Cl)cc3)nc12 [Compound 709],100 to 1000
17,CCCCCn1c(N2CCC[C@H]2C(=O)NC2CCCNC2=O)cc(=O)n2cc(-c3ccc(Cl)cc3)nc12 (stereo partly drawn) [Compound 710],100 to 1000
18,CCCCCn1c(N2CCC[C@H]2C(=O)N[C@@H]2CCCNC2=O)cc(=O)n2cc(-c3ccc(Cl)cc3)nc12 [Compound 711],100 to 1000
19,CCCCCn1c(N2CCC[C@H]2C(=O)N[C@H]2CNC(=O)C2)cc(=O)n2cc(-c3ccc(Cl)cc3)nc12 [Compound 712],100 to 1000
20,CCCCCn1c(N2CCN(C(=O)c3ccc(O)cc3)CC2)cc(=O)n2cc(-c3ccc(Cl)cc3)nc12 [Compound 713],10 to 100
21,CCCCCn1c(NCC2(CO)COC2)cc(=O)n2cc(-c3ccc(Cl)cc3)nc12 [Compound 714],100 to 1000
22,CCCCCn1c(N2CCC3(COC3)C2)cc(=O)n2cc(-c3ccc(Cl)cc3)nc12 [Compound 715],10 to 100
